Experimental data published in the NIST ThermoML archive (doi:10.1016/j.fluid.2006.01.030).
Numbers after ± are expanded uncertainties.

Test: xn = mol fraction of the nth substance listed
Conditions: Liquid

CCCCCCC [heptane] + CCO
viscosity [mPa·s]
Conditions | x2 = 0 | x2 = 0.125 | x2 = 0.25 | x2 = 0.375 | x2 = 0.5 | x2 = 0.625 | x2 = 0.75 | x2 = 0.875
293.15 K, 100 kPa, Capillary tube (Ostwald / Ubbelohde) method | 0.41 ± 0.009 | 0.419 ± 0.009 | 0.45 ± 0.01 | 0.494 ± 0.01 | 0.556 ± 0.012 | 0.644 ± 0.014 | 0.757 ± 0.016 | 0.931 ± 0.02
293.15 K, 20000 kPa, Falling or rolling sphere viscometry | 0.509 ± 0.021 | 0.518 ± 0.022 | 0.547 ± 0.023 | 0.597 ± 0.025 | 0.668 ± 0.028 | 0.76 ± 0.033 | 0.885 ± 0.038 | 1.052 ± 0.046
293.15 K, 40000 kPa, Falling or rolling sphere viscometry | 0.604 ± 0.025 | 0.614 ± 0.026 | 0.648 ± 0.027 | 0.707 ± 0.03 | 0.787 ± 0.033 | 0.888 ± 0.038 | 1.023 ± 0.044 | 1.2 ± 0.052
293.15 K, 60000 kPa, Falling or rolling sphere viscometry | 0.706 ± 0.03 | 0.718 ± 0.03 | 0.757 ± 0.032 | 0.824 ± 0.035 | 0.913 ± 0.039 | 1.022 ± 0.044 | 1.168 ± 0.05 | 1.354 ± 0.058
293.15 K, 80000 kPa, Falling or rolling sphere viscometry | 0.817 ± 0.034 | 0.832 ± 0.035 | 0.875 ± 0.037 | 0.951 ± 0.04 | 1.047 ± 0.044 | 1.162 ± 0.05 | 1.316 ± 0.056 | 1.509 ± 0.065
293.15 K, 100000 kPa, Falling or rolling sphere viscometry | 0.937 ± 0.039 | 0.953 ± 0.04 | 1.003 ± 0.042 | 1.087 ± 0.046 | 1.191 ± 0.051 | 1.312 ± 0.056 | 1.473 ± 0.063 | 1.674 ± 0.072
313.15 K, 100 kPa, Capillary tube (Ostwald / Ubbelohde) method | 0.333 ± 0.007 | 0.336 ± 0.007 | 0.354 ± 0.008 | 0.383 ± 0.008 | 0.421 ± 0.009 | 0.475 ± 0.01 | 0.55 ± 0.012 | 0.66 ± 0.014
313.15 K, 20000 kPa, Falling or rolling sphere viscometry | 0.408 ± 0.017 | 0.413 ± 0.017 | 0.429 ± 0.018 | 0.464 ± 0.02 | 0.508 ± 0.022 | 0.567 ± 0.024 | 0.65 ± 0.028 | 0.766 ± 0.033
313.15 K, 40000 kPa, Falling or rolling sphere viscometry | 0.487 ± 0.02 | 0.495 ± 0.021 | 0.513 ± 0.022 | 0.553 ± 0.024 | 0.602 ± 0.026 | 0.666 ± 0.029 | 0.756 ± 0.033 | 0.877 ± 0.038
313.15 K, 60000 kPa, Falling or rolling sphere viscometry | 0.57 ± 0.024 | 0.579 ± 0.024 | 0.599 ± 0.025 | 0.644 ± 0.027 | 0.699 ± 0.03 | 0.768 ± 0.033 | 0.864 ± 0.037 | 0.989 ± 0.043
313.15 K, 80000 kPa, Falling or rolling sphere viscometry | 0.658 ± 0.028 | 0.666 ± 0.028 | 0.69 ± 0.029 | 0.739 ± 0.031 | 0.8 ± 0.034 | 0.874 ± 0.038 | 0.974 ± 0.042 | 1.102 ± 0.048
313.15 K, 100000 kPa, Falling or rolling sphere viscometry | 0.751 ± 0.032 | 0.758 ± 0.032 | 0.786 ± 0.033 | 0.838 ± 0.036 | 0.906 ± 0.039 | 0.984 ± 0.042 | 1.088 ± 0.047 | 1.217 ± 0.053
333.15 K, 100 kPa, Capillary tube (Ostwald / Ubbelohde) method | 0.276 ± 0.006 | 0.274 ± 0.006 | 0.282 ± 0.006 | 0.299 ± 0.006 | 0.325 ± 0.007 | 0.361 ± 0.008 | 0.409 ± 0.009 | 0.484 ± 0.01
333.15 K, 20000 kPa, Falling or rolling sphere viscometry | 0.336 ± 0.014 | 0.332 ± 0.014 | 0.344 ± 0.014 | 0.364 ± 0.015 | 0.393 ± 0.017 | 0.435 ± 0.019 | 0.489 ± 0.021 | 0.565 ± 0.025
333.15 K, 40000 kPa, Falling or rolling sphere viscometry | 0.402 ± 0.017 | 0.4 ± 0.017 | 0.414 ± 0.017 | 0.436 ± 0.018 | 0.469 ± 0.02 | 0.515 ± 0.022 | 0.571 ± 0.025 | 0.651 ± 0.028
333.15 K, 60000 kPa, Falling or rolling sphere viscometry | 0.472 ± 0.02 | 0.471 ± 0.02 | 0.486 ± 0.02 | 0.511 ± 0.022 | 0.546 ± 0.023 | 0.595 ± 0.025 | 0.653 ± 0.028 | 0.734 ± 0.032
333.15 K, 80000 kPa, Falling or rolling sphere viscometry | 0.546 ± 0.023 | 0.544 ± 0.023 | 0.56 ± 0.024 | 0.589 ± 0.025 | 0.623 ± 0.026 | 0.677 ± 0.029 | 0.735 ± 0.032 | 0.816 ± 0.035
333.15 K, 100000 kPa, Falling or rolling sphere viscometry | 0.623 ± 0.026 | 0.621 ± 0.026 | 0.636 ± 0.027 | 0.67 ± 0.028 | 0.703 ± 0.03 | 0.761 ± 0.032 | 0.818 ± 0.035 | 0.898 ± 0.039
353.15 K, 100 kPa, Capillary tube (Ostwald / Ubbelohde) method | 0.232 ± 0.005 | – | – | – | – | – | – | –
353.15 K, 20000 kPa, Falling or rolling sphere viscometry | 0.289 ± 0.012 | 0.282 ± 0.012 | 0.286 ± 0.012 | 0.298 ± 0.013 | 0.316 ± 0.013 | 0.341 ± 0.015 | 0.374 ± 0.016 | 0.423 ± 0.018
353.15 K, 40000 kPa, Falling or rolling sphere viscometry | 0.346 ± 0.014 | 0.337 ± 0.014 | 0.343 ± 0.014 | 0.357 ± 0.015 | 0.376 ± 0.016 | 0.403 ± 0.017 | 0.437 ± 0.019 | 0.49 ± 0.021
353.15 K, 60000 kPa, Falling or rolling sphere viscometry | 0.401 ± 0.017 | 0.394 ± 0.016 | 0.401 ± 0.017 | 0.412 ± 0.017 | 0.434 ± 0.018 | 0.464 ± 0.02 | 0.501 ± 0.022 | 0.556 ± 0.024
353.15 K, 80000 kPa, Falling or rolling sphere viscometry | 0.458 ± 0.019 | 0.45 ± 0.019 | 0.458 ± 0.019 | 0.475 ± 0.02 | 0.499 ± 0.021 | 0.53 ± 0.023 | 0.565 ± 0.024 | 0.622 ± 0.027
353.15 K, 100000 kPa, Falling or rolling sphere viscometry | 0.521 ± 0.022 | 0.513 ± 0.022 | 0.522 ± 0.022 | 0.539 ± 0.023 | 0.565 ± 0.024 | 0.599 ± 0.026 | 0.631 ± 0.027 | 0.69 ± 0.03
